Test results: patent US8247211B2, “Glycopeptide antibiotics” (American Cyanamid Company, priority 2001, dated 2012)
Values after ≈ are worked out from the molar mass of the structure shown.

Assays:
Enterococcus sp. = assay: In vitro antibacterial evaluation: minimum inhibitory concentration (MIC), broth dilution method; assay type: cell-based; conditions: broth dilution, 18 hours at 35° C.
Summary of the method: (§1)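 MIC by broth dilution in Mueller-Hinton II medium following NCCLS M7-A2. Inoculum was 5×10^5 CFU/mL and antibiotic was tested over 64-0.06 μg/mL. Gram-positive panel included clinical isolates resistant to methicillin, penicillin and/or vancomycin.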

Escherichia coli = assay: as above; assay type: cell-based; conditions: 5×10^5 CFU/mL, 18 hours at 35° C.
Summary of the method: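 MIC read as lowest drug level preventing visible growth. Organisms at 5×10^5 CFU/mL were exposed to a 64-0.06 μg/mL dilution series in Muller-Hinton II […] following NCCLS broth dilution standard M7-A2.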

Staphylococcus sp. = assay: as above; assay type: cell-based; conditions: for MIC Staphylococcus aureus (ATCC 29213): strain ATCC 29213; for MIC Staphylococcus aureus (GC 1131): strain GC 1131; for MIC Staphylococcus aureus (GC 3051): strain GC 3051; for MIC Staphylococcus aureus (GC 3053): strain GC 3053; for MIC Staphylococcus aureus (GC 4541): strain GC 4541; for MIC Staphylococcus aureus (GC 4545): strain GC 4545; for MIC Staphylococcus haemolyticus (GC 4546): strain GC 4546; for MIC Coagulase Negative Staphylococcus (GC 4547): strain GC 4547; for MIC Coagulase Negative Staphylococcus (GC 6257): strain GC 6257
Summary of the method: as §1

Streptococcus sp. = assay: as above; assay type: cell-based; conditions: broth dilution, 18 hours at 35° C.
Summary of the method: as §1

[1] = tested on: Streptococcus pneumoniae (GC 1894), penicillin resistant strain; assay: Acute lethal infection in mice (ED50); assay type: in vivo; conditions: female CD-1 mice, intraperitoneal challenge, intravenous dose 30 min. after infection, 7 day survival ratios
Summary of the method: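 Lethal systemic infection model: female CD-1 mice, 20 ± 1-2 g, intraperitoneal challenge. Single intravenous treatment 30 min after infection; 7-day survival, pooled from 3 tests, gives ED50.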

[2] = Anatomic pathology (heart and kidney histopathology) in mice; assay type: in vivo, CD-1 mice; conditions: 20 mg/kg intravenously daily for 9 days, microscopic histopathology on day 10
Summary of the method: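 Juvenile CD-1 mice (20 days old; 5 vehicle, 5 treated) received glycopeptide antibiotic 20 mg/kg i.v. daily for 9 days. Necropsied tissues formalin-fixed, paraffin-embedded, H&E stained and examined microscopically; findings graded slight to severe versus controls.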

[3] = broth dilution, 18 hours at 35° C.

N=C1NCC(C(O)C2NC(=O)C(Cc3ccc(OC4OC(CO)C(OC5OC6COC7(OC6C(O)C5O)C5CC6CC(C5)CC7C6)C(O)C4O)cc3)NC(=O)C(CC3CCCCC3)NC(=O)CNC(=O)C(CO)NC(=O)C(C(O)C3CNC(=N)N3C3OC(CO)C(O)C(O)C3O)NC2=O)N1 (stereo not drawn) [Example 106, Cyclo[3-cyclohexylalanyl-O-[4-O-[4,6-O-(2-adamantylidene)hexopyranosyl]hexopyranosyl]-tyrosyl-3-(2-iminoimidazolidin-4-yl)seryl-3-(3-hexopyranosyl-2-iminoimidazolidin-4-yl)-serylserylglycyl]]
MIC Enterococcus avium (GC 4558) (Enterococcus sp.; Enterococcus avium (GC 4558)): 1 to 2 mg/L
MIC Enterococcus faecalis (ATCC 29212) (Enterococcus sp.; Enterococcus faecalis (ATCC 29212)): 0.5 to 2 mg/L
MIC Enterococcus faecalis (GC 2242) (Enterococcus sp.; Enterococcus faecalis (GC 2242)): 0.5 to 2 mg/L
MIC Enterococcus faecalis (GC 2691) (Enterococcus sp.; Enterococcus faecalis (GC 2691)): 1 to 2 mg/L
MIC Enterococcus faecalis (GC 3059) (Enterococcus sp.; Enterococcus faecalis (GC 3059)): 1 to 2 mg/L
MIC Enterococcus faecalis (GC 4552) (Enterococcus sp.; Enterococcus faecalis (GC 4552)): 1 to 2 mg/L
MIC Enterococcus faecalis (GC 4553) (Enterococcus sp.; Enterococcus faecalis (GC 4553)): 1 to 2 mg/L
MIC Enterococcus faecalis (GC 4554) (Enterococcus sp.; Enterococcus faecalis (GC 4554)): 1 to 2 mg/L
MIC Enterococcus faecalis (GC 6189) (Enterococcus sp.; Enterococcus faecalis (GC 6189)): 1 to 2 mg/L
MIC Enterococcus faecium (GC 2243) (Enterococcus sp.; Enterococcus faecium (GC 2243)): 0.5 to 2 mg/L
MIC Enterococcus faecium (GC 4556) (Enterococcus sp.; Enterococcus faecium (GC 4556)): 0.5 to 2 mg/L
MIC Enterococcus faecium (GC 4557) (Enterococcus sp.; Enterococcus faecium (GC 4557)): 0.5 to 2 mg/L
MIC Enterococccus avium (GC 4558) (Enterococcus sp.; 5×10^5 CFU/mL): 1 to 2 mg/L
MIC Enterococccus faecalis (ATCC 29212) (Enterococcus sp.; 5×10^5 CFU/mL): 0.5 to 2 mg/L
MIC Enterococccus faecalis (GC 2691) (Enterococcus sp.; 5×10^5 CFU/mL): 1 to 2 mg/L
MIC Enterococccus faecalis (GC 3059) (Enterococcus sp.; 5×10^5 CFU/mL): 1 to 2 mg/L
MIC Enterococccus faecalis (GC 4552) (Enterococcus sp.; 5×10^5 CFU/mL): 1 to 2 mg/L
MIC Enterococccus faecalis (GC 4553) (Enterococcus sp.; 5×10^5 CFU/mL): 1 to 2 mg/L
MIC Enterococccus faecalis (GC 4554) (Enterococcus sp.; 5×10^5 CFU/mL): 1 to 2 mg/L
MIC Enterococccus faecalis (GC 6189) (Enterococcus sp.; 5×10^5 CFU/mL): 1 to 2 mg/L
MIC Enterococccus faecium (GC 2243) (Enterococcus sp.; 5×10^5 CFU/mL): 0.5 to 2 mg/L
MIC Enterococccus faecium (GC 4556) (Enterococcus sp.; 5×10^5 CFU/mL): 0.5 to 2 mg/L
MIC Enterococccus faecium (GC 4557) (Enterococcus sp.; 5×10^5 CFU/mL): 0.5 to 2 mg/L
MIC Enterococcus faecalis (GC 2242) (Enterococcus sp.; 5×10^5 CFU/mL): 0.5 to 2 mg/L
MIC Escherichia coli (ATCC 25922) (Escherichia coli): 32 to 64 mg/L
MIC Escherichia coli (GC 4559) (Escherichia coli): 32 to 64 mg/L
MIC Escherichia coli (GC 4560) (Escherichia coli): 0.5 to 2 mg/L
MIC Staphylococcus aureus (ATCC 29213) (Staphylococcus sp.): 0.5 to 2 mg/L
MIC Staphylococcus aureus (ATCC 29213) (Staphylococcus sp.; [3]): 0.5 to 2 mg/L
MIC Staphylococcus aureus (GC 1131) (Staphylococcus sp.): 0.5 to 2 mg/L
MIC Staphylococcus aureus (GC 1131) (Staphylococcus sp.; [3]): 0.5 to 2 mg/L
MIC Staphylococcus aureus (GC 3051) (Staphylococcus sp.): 0.5 to 2 mg/L
MIC Staphylococcus aureus (GC 3051) (Staphylococcus sp.; [3]): 0.5 to 2 mg/L
MIC Staphylococcus aureus (GC 3053) (Staphylococcus sp.): 0.5 to 2 mg/L
MIC Staphylococcus aureus (GC 3053) (Staphylococcus sp.; [3]): 0.5 to 2 mg/L
MIC Staphylococcus aureus (GC 4541) (Staphylococcus sp.): 0.5 to 2 mg/L
MIC Staphylococcus aureus (GC 4541) (Staphylococcus sp.; [3]): 0.5 to 2 mg/L
MIC Staphylococcus aureus (GC 4545) (Staphylococcus sp.): 0.5 to 2 mg/L
MIC Staphylococcus aureus (GC 4545) (Staphylococcus sp.; [3]): 0.5 to 2 mg/L
MIC Staphylococcus haemolyticus (GC 4546) (Staphylococcus sp.): 0.5 to 1 mg/L
MIC Staphylococcus haemolyticus (GC 4546) (Staphylococcus sp.; [3]): 0.5 to 1 mg/L
MIC Coagulase Negative Staphylococcus (GC 4547) (Staphylococcus sp.): 0.5 to 2 mg/L
MIC Coagulase Negative Staphylococcus (GC 4547) (Staphylococcus sp.; [3]): 0.5 to 2 mg/L
MIC Coagulase Negative Staphylococcus (GC 6257) (Staphylococcus sp.): 0.25 mg/L (≈ 0.176 µM)
MIC Coagulase Negative Staphylococcus (GC 6257) (Staphylococcus sp.; [3]): 0.25 mg/L (≈ 0.176 µM)
MIC Streptococcus agalactiae (GC 4564) (Streptococcus sp.; Streptococcus agalactiae (GC 4564)): <0.03 mg/L
MIC Streptococcus pneumoniae (ATCC 6301) (Streptococcus sp.; Streptococcus pneumoniae (ATCC 6301)): <0.03 mg/L
MIC Streptococcus pneumoniae (GC 1894) (Streptococcus sp.; Streptococcus pneumoniae (GC 1894)): <0.03 mg/L
MIC Streptococcus pneumoniae (GC 4565) (Streptococcus sp.; Streptococcus pneumoniae (GC 4565)): <0.03 mg/L
MIC Streptococcus pyogenes (GC 4563) (Streptococcus sp.; Streptococcus pyogenes (GC 4563)): <0.03 mg/L
MIC Streptococcus agalactiae (GC 4564) (Streptococcus sp.; 5×10^5 CFU/mL): <0.03 mg/L
MIC Streptococcus pneumoniae (GC 1894) (Streptococcus sp.; 5×10^5 CFU/mL): <0.03 mg/L
MIC Streptococcus pneumoniae (GC 4565) (Streptococcus sp.; 5×10^5 CFU/mL): <0.03 mg/L
MIC Streptococcus pneumonine (ATCC 6301) (Streptococcus sp.; 5×10^5 CFU/mL): <0.03 mg/L
MIC Streptococcus pyogenes (GC 4563) (Streptococcus sp.; 5×10^5 CFU/mL): <0.03 mg/L
median effective dose (ED50), Streptococcus pneumoniae (GC 1894) [1]: 0.07 mg/kg
Anatomical Pathology (Day 10), Heart [2]: 0
